The text below walks through data of the supplement of paper PMC5412046.

The test system of assay [1] is SB.mhdgc-1. Kind of assay: area under the dose-response curve of % viability (trapezoidal, 11 doses) (% viability x log10 concentration); higher = less cytotoxic. The settings on record: SB.mhdgc-1 (hereditary c.1380delA CDH1 gastric cancer). The method in brief:
(§1)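 Using a pintool, 23 nL of compound in DMSO was transferred at 11 threefold-diluted concentrations onto patient-derived gastric cancer cells, hereditary or sporadic, plated at 500 cells in 5 μL medium per 1536 well. CellTiter-Glo luminescence was read after 48 h. Each value is viability normalised to DMSO, either at the highest concentration or as trapezoidal area under the curve.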

Assay [2] has as its system SB.msgc-1. Described as above. The note with it: SB.msgc-1 (sporadic gastric cancer). The method in brief: as §1
Assay [3] deals with SB.mhdgc-1. The assay is described as follows: viability at highest tested concentration (MAXR) relative to DMSO; higher = less cytotoxic. The note with it: SB.mhdgc-1 (hereditary c.1380delA CDH1 gastric cancer). The essentials:
as §1

The subject of assay [4] is SB.msgc-1. The assay is described as above. The note with it: SB.msgc-1 (sporadic gastric cancer). The essentials:
as §1

Each structure is given as a SMILES string.

As for `CC[C@H](C)C(=O)O[C@H]1C[C@@H](C)\C=C2\C=C/[C@H](C)[C@H](CC[C@@H]3C[C@@H](O)CC(=O)O3)[C@@H]12` [Lovastatin] (top concentration 46.0829 µM), the “area under the dose-response curve” value with SB.mhdgc-1 [1] is 460; with SB.msgc-1 [2] it was 351. Moreover, the viability in the assay with SB.mhdgc-1 [3] amounted to 38.2%; with SB.msgc-1 [4], 39.6%.
For the molecule `CCCCC(F)(F)[C@@]1(O)CC[C@H]2[C@@H](CC(=O)[C@@H]2CCCCCCC(=O)O)O1` [Lubiprostone] (top concentration 46.0829 µM), the entries for the “area under the dose-response curve” value in the assay with SB.mhdgc-1 [1] and in the assay on SB.msgc-1 [2] were 513 and 495, respectively. For the same molecule, the viability is 57.7% in the assay on SB.mhdgc-1 [3] and 40.1% in the assay with SB.msgc-1 [4].
For `Cc1ccc(NC(=O)C2(c3ccc4c(c3)OC(F)(F)O4)CC2)nc1-c1cccc(C(=O)O)c1` [Lumacaftor] (top concentration 46.0829 µM), the “area under the dose-response curve” value in the assay with SB.mhdgc-1 [1] was determined as 396; with SB.msgc-1 [2], 211. For the same molecule, the viability in the assay on SB.mhdgc-1 [3] worked out at 37.7%; with SB.msgc-1 [4] it was 25.3%.
In the case of `CCCCN(CCCC)CC(O)c1cc(Cl)cc2c1-c1ccc(Cl)cc1/C2=C/c1ccc(Cl)cc1` (stereo unspecified) [Lumefantrine] (top concentration 46.0829 µM), the “area under the dose-response curve” value in the assay with SB.mhdgc-1 [1] was found to be 560; in the assay with SB.msgc-1 [2] it was 476. Besides, the viability is 12% in the assay with SB.mhdgc-1 [3] and 60.5% in the assay with SB.msgc-1 [4].
For `C=C(C)[C@@H]1CC[C@]2(C)CC[C@]3(C)[C@H](CC[C@@H]4[C@@]5(C)CC[C@H](O)C(C)(C)[C@@H]5CC[C@]43C)[C@@H]12` [Lupeol] (top concentration 46.0829 µM) the same measures were 609, 522, 134% and 108%.
In the case of `O=c1cc(-c2ccc(O)c(O)c2)oc2cc(O)cc(O)c12` [Luteolin] (top concentration 46.0829 µM), the “area under the dose-response curve” value in the assay with SB.mhdgc-1 [1] amounted to 442; in the assay with SB.msgc-1 [2], 572. Besides, the values for the viability in the assay on SB.mhdgc-1 [3] and in the assay on SB.msgc-1 [4] were 42.6% and 86.9%, respectively.
Regarding `CN(C)c1ccc(C(=O)NCCCCCCC(=O)NO)cc1` [M344] (top concentration 46.0829 µM), the “area under the dose-response curve” value in the assay on SB.mhdgc-1 [1] worked out at 363; in the assay on SB.msgc-1 [2] it was 309. Also, the viability amounted to 2.75% with SB.mhdgc-1 [3] and 2.11% in the assay with SB.msgc-1 [4].
In the case of `Cn1cc(/C=C/C(=O)c2cccc(F)c2)cc1/C=C/C(=O)NO` [MC-1568] (top concentration 46.0829 µM), the “area under the dose-response curve” value stood at 492 in the assay with SB.mhdgc-1 [1] and 440 in the assay with SB.msgc-1 [2]. Further, the viability with SB.mhdgc-1 [3] is 65.8%; in the assay on SB.msgc-1 [4], 46.7%.
For `CC1(N2CCC(n3c([C@@H]4CCCNC4)nc4ccccc43)CC2)CCCCCCC1` [MCOPPB] (top concentration 46.0829 µM) the same measures were 451, 530, 4.64% and 78.1%.
For `CNC(=O)c1ccc(N2C(=S)N(c3ccc(C#N)c(C(F)(F)F)c3)C(=O)C2(C)C)cc1F` [MDV-3100] (top concentration 46.0829 µM), the entries for the “area under the dose-response curve” value with SB.mhdgc-1 [1] and in the assay with SB.msgc-1 [2] were 507 and 464, respectively. The viability with SB.mhdgc-1 [3] was 70.4%; in the assay with SB.msgc-1 [4], 74.6%.
With `CCC[C@@H](C=O)NC(=O)[C@H](CC(C)C)NC(=O)[C@H](CC(C)C)NC(=O)OCc1ccccc1` [MG-115] (top concentration 46.0829 µM), the “area under the dose-response curve” value amounted to 350 in the assay on SB.mhdgc-1 [1] and 361 with SB.msgc-1 [2]. For the same molecule, the figures for the viability in the assay on SB.mhdgc-1 [3] and with SB.msgc-1 [4] were 4.83% and 4.73%, respectively.
For the molecule `CC(C)C[C@@H](C=O)NC(=O)[C@H](CC(C)C)NC(=O)[C@H](CC(C)C)NC(=O)OCc1ccccc1` [MG-132] (top concentration 46.0829 µM), the “area under the dose-response curve” value in the assay on SB.mhdgc-1 [1] came out at 330; in the assay on SB.msgc-1 [2], 292. For the same molecule, the figures for the viability in the assay with SB.mhdgc-1 [3] and with SB.msgc-1 [4] were 3.2% and 3.51%, respectively.
With `CCCCCCCc1ccc(CCc2cccc(O)c2C(=O)O)cc1` [MG-149] (top concentration 46.0829 µM), the “area under the dose-response curve” value was found to be 525 in the assay on SB.mhdgc-1 [1] and 511 in the assay with SB.msgc-1 [2]. Moreover, the viability with SB.mhdgc-1 [3] was found to be 90.6%; in the assay with SB.msgc-1 [4], 79.6%.
Turning to `Cn1cnc(-c2cc3nccc(Oc4ccc(NC(=S)NC(=O)Cc5ccccc5)cc4F)c3s2)c1` [MGCD-265] (top concentration 46.0829 µM), the results for the “area under the dose-response curve” value with SB.mhdgc-1 [1] and in the assay on SB.msgc-1 [2] were 410 and 425, respectively. Moreover, the viability in the assay with SB.mhdgc-1 [3] was 56.2%; in the assay with SB.msgc-1 [4] it was 40%.
For the molecule `COCCOc1nc(-c2ccc(Cl)c(Cl)c2)n(-c2ccc(NC(=O)CCl)cc2)n1` [MI-2] (top concentration 46.0829 µM), the “area under the dose-response curve” value with SB.mhdgc-1 [1] amounted to 474; with SB.msgc-1 [2] it was 460. Besides, the viability with SB.mhdgc-1 [3] turned out to be 35.3%; with SB.msgc-1 [4] it was 59.3%.
On to `C1Cc2[nH]nc(-c3nn[nH]n3)c2C1` [MK-0354] (top concentration 46.0829 µM), for which the “area under the dose-response curve” value is 450 in the assay on SB.mhdgc-1 [1] and 499 in the assay on SB.msgc-1 [2]. The viability in the assay with SB.mhdgc-1 [3] was determined as 98.4%; with SB.msgc-1 [4], 112%.
As to `O=C(O)CCC1CCC(c2cc(F)ccc2F)([S+](=O)([O-])c2ccc(Cl)cc2)CC1` (stereo unspecified) [MK-0752] (top concentration 46.0829 µM), the “area under the dose-response curve” value is 435 in the assay on SB.mhdgc-1 [1] and 479 in the assay with SB.msgc-1 [2]. The viability in the assay on SB.mhdgc-1 [3] was found to be 78.9%; in the assay on SB.msgc-1 [4] it was 58.6%.
With `COc1ccc(CC2SC(=O)NC2=O)cc1C(=O)NCc1ccc(C(F)(F)F)cc1` (stereo unspecified) [MK-767] (top concentration 46.0829 µM), the “area under the dose-response curve” value turned out to be 462 in the assay with SB.mhdgc-1 [1] and 271 in the assay with SB.msgc-1 [2]. Besides, the values for the viability in the assay with SB.mhdgc-1 [3] and with SB.msgc-1 [4] were 59.8% and 19.6%, respectively.
For `CC(C)c1ccc2c(c1)c(SC(C)(C)C)c(CC(C)(C)C(=O)[O-])n2Cc1ccc(Cl)cc1` [MK-886] (top concentration 46.0829 µM), in that order: 473, 331, 25.9% and 19%.

Usually viability stands for a read-out of living cells in per cent, often relative to untreated cells.
